Measured values reported in patent publication US6403788B1, “Non-genotoxic metalloporphyrins as synthetic catalytic scavengers of reactive oxygen species” (Eukarion, Inc., priority 2000, dated 2002).

How the values were obtained:
[1] = Catalase activity, hydrogen peroxide consumed at 20 minutes; type: biochemical; details: over 20 minutes; 10 μM compound, 100 μM hydrogen peroxide, 40 mM sodium phosphate pH 7.4
Procedure: Catalase activity was measured by incubating the sample compound with hydrogen peroxide and determining the amount of hydrogen peroxide remaining after a period of time using a colorimetric peroxidase-coupled assay method. 10 μM sample compound and 100 μM hydrogen peroxide in 40 mM sodium phosphate pH 7.4 were incubated together at ambient temperature in a multi-well plate. After the desired reaction period had elapsed, 20 μl of peroxidase/ABTS reagent was added (peroxidase/ABTS reagent contained 100 μl of 50 mM Na phosphate, pH 7.4, 1 mg horseradish peroxidase (1310 U/mg) and […]). After five minutes, absorbance at 750 nm was determined. The amount of hydrogen peroxide remaining was calculated based on a standard curve. To compare rates of catalase reaction, the amount of hydrogen peroxide consumed at 20 minutes was determined (See table III). It was also of interest to determine the total number of turnovers completed by the compound before inactivation by hydrogen peroxide. This was assayed under similar conditions, except that 15.8 μM compound was combined with 1582 μM hydrogen peroxide in 5 mM Na phosphate, pH 7.4. Reactions were allowed to proceed to completion and then the amount of hydrogen peroxide remaining was determined as described above. Results showing […] in the turnover assay (nmoles hydrogen peroxide per nmole compound) are also shown in Table III.

[2] = test system: CBA/J female mice, oxazolone-induced inflammatory ear edema; assay: Delayed type hypersensitivity: oxazolone-induced ear edema; type: in vivo
Text: CBA/J female mice (Jackson Labs, Bar Harbor, ME) 7 weeks of age were pre-sensitized with 3% oxazolone (Sigma Chemical Co., St. Louis, Mo.) in 99.9% acetone, on the abdomen. After 8 days, the mice were challenged with 1.2% oxazolone topically on one ear to induce an inflammatory edema. Either Structural Formula V, Structural Formula IV at a dose of 7 nmoles/ear each, or ethanol, i.e. vehicle control (eight mice per study group), was applied topically to the ear immediately after the oxazolone challenge. Ear edema was measured by comparing the tissue water content (the wet weight minus the dry weight) of the challenged ear to that of the control ear. The percent edema (% water in the right ear-left ear) in the vehicle control was 6.5% and 2.1% and 3.9% for Structural Formula V and Structural Formula IV, respectively at a dose of 7 nmoles/ear.

[3] = test system: ΦX 174 DNA Plasmid (Form I); assay: Cleavage of ΦX 174 DNA plasmid (form I), activation with ascorbate in the presence of air; type: biochemical, phage ΦX 174; details: DNA 3.5 nM, Asc. 1 mM
Text: (§1) The DNA cleavage activity was quantified in terms of number of single-strand breaks per DNA molecule according to the equation […], Io=% form I (supercoiled DNA) in the DNA control, and I=% form I in the experiment (see Bernadou et al, Biochemistry, 28: 7268-7275, (1989)). This assay is very sensitive and is able to detect very low levels of DNA activity. S values less than S=1.0 are indicative of very low DNA cleavage activity when the compounds are at a concentration of equal to or less than 1000 nM and KHSO5 is present at a concentration of equal to or less than 100 μM.
(§2) ΦX 174 DNA digestion conditions for standard experiments were as follows: commercially available DNA was diluted to 50 μg/mL in phosphate buffer (10 mM, pH 7.5). The reaction involved 5 μL of ΦX 174 DNA (50 μg/mL, 74.8 μM in base pairs), 5 μL of 40 mM phosphate buffer, pH 7.5 with 400 mM NaCl, 5 μL of metalloporphyrin in double-distilled water or 5 μL of iron-bleomycin complex in double-distilled water, and 5 μL of KHSO5 or 5 μL of H2O2 or 5 μL of ascorbate in double-distilled water. Preincubation of DNA and metalloporphyrins or iron-bleomycin complex was performed for about 15 min. The digestion time in the presence of KHSO5 was 10 min, of H2O2 was 30 min and of ascorbate was 30 min at 20° C. DNA cleavage was monitored by agarose gel electrophoresis. Reactions with KHSO5 were first quenched by 2 μL of 100 mM Hepes buffer, pH 8. In all cases, reactions were quenched by 5 μL of a stopping reagent. The stopping reagent consisted of 250 mM Hepes buffer, pH 7.4, containing 75% glycerol and 0.05% bromophenol blue. Reaction mixtures were then run in 0.8% agarose slab horizontal gel containing ethidium bromide […], at constant current (25 mA for 15h), in 89 mM Tris-borate buffer and 2.5 mM EDTA pH 8.3. Bands were located by WV light (254 nm), photographed, and quantitated by microdensitometry. The correction coefficient 1.47±0.30 was used for decreased stainability of form I DNA vs form II DNA and form III DNA.

[4] = test system: ΦX 174 DNA Plasmid (Form I); assay: Cleavage of ΦX 174 DNA plasmid (form I), compound alone or activated with KHSO5; type: biochemical, phage ΦX 174; details: for S (single-strand breaks per DNA molecule) / form % I / form % II / form % III: DNA 3.5 nM
Text: as §1, §2

**Q.** For `CC[NH+](CC)CCNS(=O)(=O)c1c(C)cc(C)c(C2=C3C=CC4=[N+]3[Fe-]35[n]6c2ccc6C(c2c(C)cc(C)c(S(=O)(=O)NCC[NH+](CC)CC)c2C)=C2C=CC(=[N+]23)C(c2c(C)cc(C)c(S(=O)(=O)NCC[NH+](CC)CC)c2C)=c2ccc([n]25)=C4c2c(C)cc(C)c(S(=O)(=O)NCC[NH+](CC)CC)c2C)c1C.[Cl-].[Cl-].[Cl-].[Cl-].[Cl-]` [Structural Formula V, meso-tetrakis[3-(N-(2-(N,N-diethylammonio)ethyl)aminosulfonyl)-2,4,6-trimethylphenyl]porphyrinato diaqua-iron (III) pentachloride], which “CATALASE* Rate at 20 mins.” value [1] is on record?
**A.** The value was 6.4 nmole H2O2/nmole Structural Formula compound.

**Q.** What about the “effect on edema compared to vehicle” value ([2]; 7 nmoles/ear topically) of the same compound?
**A.** Its value is “effective in reducing the percentage of edema”.

**Q.** What about the “percent edema (% water in the right ear-left ear)” value ([2]; 7 nmoles/ear topically immediately after oxazolone challenge, vehicle control 6.5%) of the same compound?
**A.** Its value is 2.1%.

**Q.** And the “S (single-strand breaks per DNA molecule)” value ([3]; compound 10 nM)?
**A.** Its value is 0.11 SSBs.

**Q.** What about the “form % I” value ([3]; compound 10 nM) of the same compound?
**A.** The value was 87%.

**Q.** What about the “form % II” value ([3]; compound 10 nM) of the same compound?
**A.** Its value is 13%.

**Q.** What about the “form % III” value ([3]; compound 10 nM) of the same compound?
**A.** Its value is 0%.

**Q.** And the “S (single-strand breaks per DNA molecule)” value ([3]; compound 100 nM)?
**A.** Its value is 0.34 SSBs.

**Q.** What about the “form % I” value ([3]; compound 100 nM) of the same compound?
**A.** The value was 75%.

**Q.** And the “form % II” value ([3]; compound 100 nM)?
**A.** Its value is 25%.

**Q.** What about the “form % III” value ([3]; compound 100 nM) of the same compound?
**A.** The value was 0%.

**Q.** What about the “S (single-strand breaks per DNA molecule)” value ([3]; compound 1 μM) of the same compound?
**A.** The value was 2.76 SSBs.

**Q.** And the “form % I” value ([3]; compound 1 μM)?
**A.** Its value is 29%.

**Q.** What about the “form % II” value ([3]; compound 1 μM) of the same compound?
**A.** The value was 71%.

**Q.** And the “form % III” value ([3]; compound 1 μM)?
**A.** Its value is 0%.

**Q.** What about the “S (single-strand breaks per DNA molecule)” value ([4]; compound 10 nM, KHSO5 100 μM) of the same compound?
**A.** Its value is 0.01 SSBs.

**Q.** What about the “form % I” value ([4]; compound 10 nM, KHSO5 100 μM) of the same compound?
**A.** The value was 91%.

**Q.** What about the “form % II” value ([4]; compound 10 nM, KHSO5 100 μM) of the same compound?
**A.** Its value is 9%.

**Q.** And the “form % III” value ([4]; compound 10 nM, KHSO5 100 μM)?
**A.** Its value is 0%.

**Q.** What about the “S (single-strand breaks per DNA molecule)” value ([4]; compound 10 nM, without KHSO5) of the same compound?
**A.** The value was 0 SSBs.

**Q.** What about the “form % I” value ([4]; compound 10 nM, without KHSO5) of the same compound?
**A.** Its value is 92%.

**Q.** And the “form % II” value ([4]; compound 10 nM, without KHSO5)?
**A.** The value was 8%.

**Q.** And the “form % III” value ([4]; compound 10 nM, without KHSO5)?
**A.** Its value is 0%.

**Q.** And the “S (single-strand breaks per DNA molecule)” value ([4]; compound 100 nM, KHSO5 100 μM)?
**A.** The value was 0.03 SSBs.

**Q.** And the “form % I” value ([4]; compound 100 nM, KHSO5 100 μM)?
**A.** The value was 90%.

**Q.** And the “form % II” value ([4]; compound 100 nM, KHSO5 100 μM)?
**A.** The value was 10%.

**Q.** And the “form % III” value ([4]; compound 100 nM, KHSO5 100 μM)?
**A.** The value was 0%.

**Q.** What about the “S (single-strand breaks per DNA molecule)” value ([4]; compound 100 nM, without KHSO5) of the same compound?
**A.** The value was 0 SSBs.

**Q.** What about the “form % I” value ([4]; compound 100 nM, without KHSO5) of the same compound?
**A.** Its value is 92%.

**Q.** And the “form % II” value ([4]; compound 100 nM, without KHSO5)?
**A.** Its value is 8%.

**Q.** And the “form % III” value ([4]; compound 100 nM, without KHSO5)?
**A.** Its value is 0%.

**Q.** And the “S (single-strand breaks per DNA molecule)” value ([4]; compound 1 μM, KHSO5 100 μM)?
**A.** The value was 0.07 SSBs.

**Q.** What about the “form % I” value ([4]; compound 1 μM, KHSO5 100 μM) of the same compound?
**A.** The value was 87%.

**Q.** And the “form % II” value ([4]; compound 1 μM, KHSO5 100 μM)?
**A.** Its value is 13%.

**Q.** What about the “form % III” value ([4]; compound 1 μM, KHSO5 100 μM) of the same compound?
**A.** The value was 0%.

**Q.** What about the “S (single-strand breaks per DNA molecule)” value ([4]; compound 1 μM, without KHSO5) of the same compound?
**A.** The value was 0.07 SSBs.

**Q.** What about the “form % I” value ([4]; compound 1 μM, without KHSO5) of the same compound?
**A.** Its value is 87%.

**Q.** What about the “form % II” value ([4]; compound 1 μM, without KHSO5) of the same compound?
**A.** Its value is 13%.

**Q.** What about the “form % III” value ([4]; compound 1 μM, without KHSO5) of the same compound?
**A.** Its value is 0%.

**Q.** What about the “DNA cleavage activity in oxidative medium” value ([4]; oxidative medium (KHSO5)) of the same compound?
**A.** Its value is “do not exhibit any significant DNA cleavage activity”.
